Assay results published in PubChem BioAssay (NCI).
Several values for one entry are separate records, joined by “and”; a condition that tells them apart may be missing. Identical values can stand only once.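 Five compound concentrations were applied to cells in 96-well plates for 48 hours; endpoints were derived by simple linear interpolation of the resulting dose-response curve. GI50 marks 50% less growth. TGI: concentration producing complete growth inhibition.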

Key:
Assay in all cases: DTP human tumour cell line panel, 48 h
HCT-15 colon = tested on: HCT-15 colon
IGROV1 ovarian = tested on: IGROV1 ovarian
K-562 leukemia = tested on: K-562 leukemia
NCI-H522 lung = tested on: NCI-H522 lung
OVCAR-4 ovarian = tested on: OVCAR-4 ovarian
SF-539 CNS = tested on: SF-539 CNS
SN12C renal = tested on: SN12C renal
SNB-19 CNS = tested on: SNB-19 CNS
U251 CNS = tested on: U251 CNS

Row | Compound | TGI (HCT-15 colon) [µM] | TGI (IGROV1 ovarian) [µM] | TGI (K-562 leukemia) | TGI (NCI-H522 lung) [µM] | TGI (OVCAR-4 ovarian) [µM] | TGI (SF-539 CNS) [µM] | TGI (SN12C renal) [µM] | TGI (SNB-19 CNS) [µM] | TGI (U251 CNS) [µM] | GI50 (HCT-15 colon) [µM] | GI50 (IGROV1 ovarian) [µM] | GI50 (K-562 leukemia) [µM] | GI50 (NCI-H522 lung) [µM] | GI50 (OVCAR-4 ovarian) [µM] | GI50 (SF-539 CNS) [µM] | GI50 (SN12C renal) [µM] | GI50 (SNB-19 CNS) [µM] | GI50 (U251 CNS) [µM]
1 | O=C(O)c1nc(-c2ccccc2)[nH]c1C(=O)O | 38.8 | 28.2 | 15.3 µM | 32 | 32.1 | 22.7 | 26.6 | 25.1 | 8.33 | – | – | – | – | – | – | – | – | –
2 | C[C@@H]1CC[C@H]2C(C(O)CCCCC(O)C3=C(C(F)(F)F)O[C@@H]4O[C@@]5(C)CC[C@H]6[C@H](C)CC[C@@H]3[C@@]46OO5)=C(C(F)(F)F)O[C@@H]3O[C@@]4(C)CC[C@@H]1[C@]32OO4 (some centres not stated) | > 100 | > 100 | > 100 µM | > 100 | > 100 | > 100 | > 100 | > 100 | > 100 | 9.79 | 15.6 | 16.2 | 26.6 | 28.5 | 90.7 | 21 | > 100 | 19.8
3 | COc1ccc2nc3cc([N+](=O)[O-])ccc3c(Nc3ccc(S(=O)(=O)NC(C)=O)cc3)c2c1 | > 100 | – | > 100 µM | > 100 | > 100 | > 100 | > 100 | > 100 | > 100 | – | – | – | – | – | – | – | – | –
4 | CCOC(=O)c1nc2ccc(C(F)(F)F)cc2nc1Oc1cc(OC)cc(OC)c1 | > 100 | > 100 | > 100 µM | – | 95.1 | > 100 | > 100 | > 100 | > 100 | – | – | – | – | – | – | – | – | –
5 | Nc1ncnc2c1nnn2C1CCC(CP(=O)(O)O)C1 (configuration not stated) | > 100 | > 100 | > 100 µM | – | > 100 | > 100 | > 100 | > 100 | > 100 | – | – | – | – | – | – | – | – | –
6 | COc1ccc(C)cc1Nc1nnc(-c2ccccc2N)s1 | > 100 | > 100 | > 100 µM | 58.7 | > 100 | > 100 | > 100 | > 100 | – | – | – | – | – | – | – | – | – | –
7 | CSc1n[nH]c(N)c1C(=O)Nc1ccc(C)cc1 | > 100 | – | > 100 µM | > 100 | > 100 | > 100 | > 100 | > 100 | > 100 | – | – | – | – | – | – | – | – | –
8 | COC1OC2COC1(OC)C1OC(C)(C)OC21 (configuration not stated) | > 100 | > 100 | > 100 µM | > 100 | > 100 | – | > 100 | > 100 | > 100 | – | – | – | – | – | – | – | – | –
9 | COc1ccc(-n2c(=O)n(C)c(=O)n2-c2ccc(OC)cc2)cc1 | > 100 | > 100 | > 100 µM | – | – | > 100 | > 100 | > 100 | > 100 | – | – | – | – | – | – | – | – | –
10 | COc1ccc(C(=O)/C=C/c2c(Cl)c3c(c(OC)c2Cl)OCC(=O)N3)cc1 | 6.14 | > 100 | 7.73 µM | 3.24 | 8.04 | 4.85 | – | – | – | 2.01 | 3.28 | 1.85 | 1.55 | 2.56 | 2.21 | – | – | –
11 | CC(=O)Nc1ccc(OC2=CCN(C)CC2)cc1 | > 100 | > 100 | > 100 µM | – | > 100 | – | > 100 | > 100 | > 100 | – | – | – | – | – | – | – | – | –
12 | O=C(Nc1ccccc1)N(CCCCN(Cc1ccccc1)C(=O)Nc1ccccc1)Cc1ccccc1 | > 100 | > 100 | > 100 µM | > 100 | > 100 | – | > 100 | > 100 | > 100 | – | – | – | – | – | – | – | – | –
13 | CC(=O)Oc1c2oc3ccc(Cl)cc3c(=O)c2c(O)c2ccsc12 | > 100 | – | > 100 µM | – | > 100 | > 100 | > 100 | > 100 | > 100 | – | – | – | – | – | – | – | – | –
14 | O=c1ccn(CC2(CO)CC(Cc3ccccc3)C2)c(=O)[nH]1 (configuration not stated) | > 100 | > 100 | > 100 µM | > 100 | > 100 | > 100 | > 100 | – | > 100 | – | – | – | – | – | – | – | – | –
15 | O=C(OCCN=c1c2ccccc2ccc2ccccc12)c1ccc([N+](=O)[O-])cc1 | > 100 | > 100 | > 100 µM | – | > 100 | > 100 | > 100 | > 100 | > 100 | – | – | – | – | – | – | – | – | –
16 | CCOC(=O)c1cnc2oc3ccc(O)cc3c2c1-c1ccccc1 | > 100 | > 100 | > 100 µM | – | > 100 | 46.5 | > 100 | > 100 | > 100 | – | 2.53 | – | – | – | – | – | – | –
17 | Oc1c([Si](c2ccccc2)(c2ccccc2)c2ccccc2)cc2ccccc2c1-c1c(O)c([Si](c2ccccc2)(c2ccccc2)c2ccccc2)cc2ccccc12 | > 100 | > 100 | > 100 µM | > 100 | > 100 | > 100 | – | > 100 | > 100 | – | – | – | – | – | – | – | – | –
18 | CC(C)(Oc1ccc(Cl)cc1)C(=O)N(C(=O)N1CCC(c2ccccc2)CC1)c1ccccc1 | > 100 | > 100 | > 100 µM | – | > 100 | > 100 | > 100 | > 100 | > 100 | – | – | – | – | – | – | – | – | –

Row | Compound | TGI (HCT-15 colon) [µM] | TGI (IGROV1 ovarian) [µM] | TGI (K-562 leukemia) | TGI (NCI-H522 lung) [µM] | TGI (OVCAR-4 ovarian) [µM] | TGI (SF-539 CNS) [µM] | TGI (SN12C renal) [µM] | TGI (SNB-19 CNS) [µM] | TGI (U251 CNS) [µM] | GI50 (HCT-15 colon) [µM] | GI50 (IGROV1 ovarian) [µM] | GI50 (K-562 leukemia) [µM] | GI50 (NCI-H522 lung) [µM] | GI50 (OVCAR-4 ovarian) [µM] | GI50 (SF-539 CNS) [µM] | GI50 (SN12C renal) [µM] | GI50 (SNB-19 CNS) [µM] | GI50 (U251 CNS) [µM]
19 | COc1ccc(-c2cc(-c3ccc(Nc4ccnc5cc(Cl)ccc45)cc3)[nH]c(=O)c2C#N)c2ccccc12 | > 100 | > 79.1 | 6.35 µM | – | – | – | 46.9 | > 23.4 | – | – | – | – | – | – | – | – | – | –
20 | O=C(Cn1c(C(=O)/C=C/c2cccs2)nc2ccccc21)c1ccc(Cl)cc1 | 83 | 77.7 | 45.7 µM | – | 76.9 | > 100 | 50.1 | > 100 | 30.3 | – | – | – | – | – | – | – | – | –
21 | COc1cc(/C=C2\Sc3scc(-c4cccc([N+](=O)[O-])c4)[n+]3C2=O)cc(OC)c1OC | – | 29.4 | > 100 µM | 27.3 | 31.5 | 24.2 | 42.5 | 46.5 | 26.3 | – | – | – | – | – | – | – | – | –
22 | C#CCSC(C=C=C)P(=O)(OC(C)C)OC(C)C (configuration not stated) | > 100 | > 100 | 68.4 µM | 83.6 | > 100 | – | 88.3 | > 100 | > 100 | – | – | – | – | – | – | – | – | –
23 | CC1(C)C2C=CC1(C)C1(CC2)OCCO1 (configuration not stated) | > 100 | > 100 | > 100 µM | – | > 100 | > 100 | > 100 | > 100 | > 100 | – | – | – | – | – | – | – | – | –
24 | O=C1c2cc3c(cc2CC12Cc1ccc4c(c1C2=O)CCCC4)CCCC3 (configuration not stated) | > 100 | > 100 | > 100 µM | > 100 | 62.8 | > 100 | – | > 100 | 60.5 | – | – | – | – | – | – | – | – | –
25 | NNC(=O)Cn1c2ccc(Br)cc2c2nc3ccccc3nc21 | – | > 100 | > 100 µM | – | – | > 100 | > 100 | > 100 | > 100 | – | – | – | – | – | – | – | – | –
26 | O=c1[nH]nc(-c2ccccc2)n1/N=C/c1cccnc1 | > 100 | > 100 | > 100 µM | > 100 | – | > 100 | > 100 | > 100 | > 100 | – | – | – | – | – | – | – | – | –
27 | COC(=O)C(CSSC[C@H](N/C(C)=C/C(C)=O)C(=O)OC)N/C(C)=C/C(C)=O (some centres not stated) | – | > 100 | > 100 µM | 30 | > 100 | > 100 | > 100 | > 100 | > 100 | – | – | – | – | – | – | – | – | –
28 | COC(=O)c1cc2ccc(OC(C)=O)c(OC(C)=O)c2cn1 | 39 | 33.9 | 7.32 µM and 3.75 µM | 34.5 | 30.6 | 33.8 | 21.3 | – | 28.2 | – | – | 1.86 | – | – | – | 6.91 | – | 12.7
29 | COc1ccc(/C=C2\S/C(=N/Nc3nc(-c4ccccc4)cs3)NC2=O)cc1OC | 69 | 44.2 | – | 47.4 | 98.1 | 71.4 | > 100 | 89.9 | 87.2 | – | – | – | – | – | – | – | – | –
30 | CC1(C)CC(=O)c2c(nc3ccc4ccccc4c3c2-c2ccc(NC(=O)CCCCCCCCC(=O)Nc3ccc(-c4c5c(nc6ccc7ccccc7c46)CC(C)(C)CC5=O)cc3)cc2)C1 | > 100 | > 100 | > 100 µM | – | – | > 100 | > 100 | > 100 | > 100 | – | – | – | – | – | – | – | – | –
31 | COc1ccc(-c2cc(-c3cc4cc(Br)ccc4nc3Cl)c(C#N)c(N)n2)cc1 | > 12.5 | > 12.5 | > 12.5 µM | > 12.5 | > 12.5 | > 12.5 | > 12.5 | > 12.5 | – | – | – | – | – | – | – | – | – | –
32 | CC1CC/C(=C\c2ccc(Cl)cc2)C2OC(N)=C(C#N)C(c3ccc(Cl)cc3)=C12 (configuration not stated) | 23.1 | 26.5 | 51.8 µM | – | – | 28 | 26.5 | 39.6 | 30.6 | – | – | – | – | – | – | – | – | –
33 | Nc1ccccc1CC(O)C(=O)O (configuration not stated) | > 100 | – | > 100 µM | – | – | > 100 | > 100 | > 100 | > 100 | – | – | – | – | – | – | – | – | –
34 | C/C=C(/C)C(=O)O[C@H](C[C@@H](C)[C@H]1CC(c2ccoc2)OC1=O)[C@@]1(C)C(=O)CCC2O[C@]21C (some centres not stated) | > 100 | > 100 | > 100 µM | > 100 | > 100 | > 100 | – | > 100 | > 100 | – | – | – | – | – | – | – | – | –
35 | N#Cc1c(-c2ccc(Cl)cc2)c2c(n(C3OC(CO)C(O)C(O)C3O)c1=S)CCC2 (configuration not stated) | > 100 | > 100 | 38.5 µM | – | > 100 | 42.3 | > 100 | 71 | 84.9 | – | – | – | – | – | – | – | – | –
